From US20170151256A1, “ANTITUMOR AGENT” (ZERIA PHARMACEUTICAL CO., LTD., priority 2005, published 2017)
Structures can show the parent of a compound that is named as a salt. Where two headings read alike, the source gives them in different places.

Columns and labels:
[1] = tested on: human colon cancer cells (HT-29); assay: HT-29 subcutaneous xenograft, alone and in combination with 5-FU; assay type: in vivo, mouse
Method: 1×10^6 cells of human colon cancer cells (HT-29) were subcutaneously implanted into right abdomen of female Balb/c nude mice. […] For comparison, 5-FU was intraperitoneally administered to mice in positive control groups at doses of 3, 10, and 30 mg/kg once daily for 12 days. […] On the day following the final administration, the tumor was removed and weighed. […] Percent inhibition of tumor growth was calculated based on the tumor weights in each administration groups versus that in a control group.

[2] = tested on: human colon cancer xenograft; settings: Non-Patent Document 14, cited from earlier work
[3] = tested on: human pancreatic cancer PANC-1; settings: Non-Patent Document 12, cited from earlier work
[4] = tested on: pancreatic cancer or colon cancer xenograft; settings: only observed at a high dose of 200 mg/kg or more; Patent Document 1; cited from earlier work
[5] = Toxicity test through 28-day repeated oral administration to rats; assay type: in vivo
[6] = Toxicity test through 28-day repeated oral administration to dogs; assay type: in vivo
[7] = tested on: human pancreatic cancer cells (PAN1VC); assay: PAN1VC implanted into pancreas, tumor weight, alone and with gemcitabine; assay type: in vivo, mouse; settings: male nude mice
Method: 1×10^6 cells of human pancreatic cancer cells (PAN1VC) were implanted into the pancreas of male nude mice. […] Percent inhibition of tumor growth was calculated based on the tumor weights in each administration groups versus that in a control group.

[8] = tested on: human pancreatic cancer cells (PANC-1); assay: PANC-1 implanted into pancreas, lethal model, survival rate; assay type: in vivo, mouse; settings: gemcitabine hydrochloride 100 mg/kg i.v. on days 7, 10, 14 after implantation; 40 days after administration start (46 days after implantation); female SCID mice (control […])
Method: (§1) A small piece (70 to 80 mg) of human pancreatic cancer cells (PANC-1) was implanted into the pancreas of female SCID mice (15 mice for each group). […] In another group of mice, on seven, 10, and 14 days after the implantation, gemcitabine hydrochloride (Gemzar Injection®) as a positive control was intravenously injected at a dose of 100 mg/kg.

[9] = tested on: human pancreatic cancer cells (PANC-1); assay: PANC-1 implanted into pancreas, lethal model, survival with gemcitabine combination (Table 1); assay type: in vivo, mouse; settings: female SCID mice, compound A1 100 mg/kg oral once daily from day 7, GEM 100 mg/kg i.v. days 7, 10, 14
Method: as §1, with “after” for “after the”, “Injection®)” for “Injection®) as a positive control”, “administered” for “injected”

[10] = tested on: human pancreatic cancer cells (MIAPaCa 2); assay: MIAPaCa 2 subcutaneous xenograft, tumor weight; assay type: in vivo, mouse; settings: female Balb/c nude mice
Method: 3×10^6 cells of human pancreatic cancer cells (MIAPaCa 2) were subcutaneously implanted into right abdomen of female Balb/c nude mice. […] On the day following the final administration, the tumor was removed and weighed. For comparison, vehicle was orally administered to mice in a control group, and the tumor weight was measured in similar manner to that described above. Percent inhibition of tumor growth was calculated based on the tumor weights in each administration group versus that in a control group.

[11] = tested on: human colon cancer cells (C170HM2); assay: C170HM2 intraperitoneal model, tumor metastasis to the liver; assay type: in vivo, mouse; settings: 40 days after implantation, male nude mice
Method: 1.5×10^6 cells of human colon cancer cells (C170HM2) were intraperitoneally injected into male nude mice. […] Meanwhile, in a positive control group, the combination of 5-fluorouracil (hereinafter called “5-FU”) and leucovorin were intravenously administered (for each compound, 25 mg/kg/injection) one, four, seven, and 10 days after tumor implantation. Forty days after implantation of C170HM2 tumor, the weight of tumor-metastasized liver was measured.

[12] = tested on: human colon cancer cells (HT-29); assay: HT-29 subcutaneous xenograft, tumor weight; assay type: in vivo, mouse; settings: female Balb/c nude mice
Method: 1×10^6 cells of human colon cancer cells (HT-29) were subcutaneously implanted into right abdomen of female Balb/c nude mice. […] On the day following the final administration, the tumor was removed and weighed. In a control group, vehicle was orally administered to mice, and the tumor weight was measured in similar manner to that described above. Percent inhibition of tumor growth was calculated based on the tumor weights in each administration groups versus that in a control group.

[13] = rats, 1,000 mg/kg for 28 consecutive days (summary statement)
[14] = dogs, 1,000 mg/kg for 28 consecutive days (summary statement)
[15] = 30, 100, 300 or 1,000 mg/kg oral for 28 days, male and female SD rats, any group
[16] = 30, 100, 300 or 1,000 mg/kg oral for 28 days, male and female beagle dogs, any group

For `O=c1[nH]cc(F)c(=O)[nH]1` [5-FU, 5-fluorouracil], the “Percent inhibition of tumor growth (tumor weight vs control)” value (shortened to “Percent inhibition of tumor growth”) ([1]; 5-FU alone, 3 mg/kg i.p. once daily for 12 days) was 24%, the “Percent inhibition of tumor growth” value ([1]; 5-FU alone, 10 mg/kg i.p. once daily for 12 days) was 30% and the “Percent inhibition of tumor growth” value ([1]; 5-FU alone, 30 mg/kg i.p. once daily for 12 days) was 58%.
In the case of `C[C@](Cc1c[nH]c2ccccc12)(NC(=O)OC1[C@H]2C[C@@H]3C[C@@H](C[C@H]1C3)C2)C(=O)NC[C@H](NC(=O)CCC(=O)O)c1ccccc1` (some centres unmarked) [CI-988], the “Cell growth suppressive effect” value ([2]; oral 25 mg/kg, without non-physiological gastrin stimulation) is given as “exhibits cell growth suppressive effect” and the “Cell growth suppressive effect” value ([2]; oral 50 mg/kg) is given as “exhibits no cell growth suppressive effect”.
In the case of `Cc1cccc(NC(=O)N[C@@H]2N=C(c3ccccc3)c3ccccc3N(C)C2=O)c1` [L-365,260], the Gastrin-induced tumor growth ([3]; with gastrin stimulation) is given as “suppresses gastrin-induced tumor growth” and the “Tumor growth without stimulation by gastrin” value ([3]; without gastrin stimulation) is given as “does not suppress tumor growth”.
For `CNc1cccc(NC(=O)N[C@@H]2N=C(c3ccccn3)c3ccccc3N(CC(=O)C(C)(C)C)C2=O)c1` [YF476], the Tumor-shrinking effect [4] is given as “exhibits tumor-shrinking effect”.
In the case of `CC(C)(C)C(=O)CN1C(=O)[C@H](NC(=O)Nc2cccc(C(=O)O)c2)CN(C2CCCCC2)c2ccccc21` [compound A, (R)-(−)-3-[3-(1-tert-butylcarbonylmethyl-2-oxo-5-cyclohexyl-1,3,4,5-tetrahydro-2H-1,5-benzodiazepin-3-yl)ureido]benzoic acid], the “Abnormality in body weight, feed intake, ophthalmological test, urine test, organ weight, autopsy finding, histopathological test” value (“Abnormality … histopathological test” below) [5, 13] is reported as “no abnormality was found”, the Deaths [5, 13] is reported as “no deaths were observed” and the “Abnormality … histopathological test” value [6, 14] is reported as “no abnormality was found”. For the same compound, the Deaths [6, 14] was “no deaths were observed”.
For `Nc1ccn([C@@H]2O[C@H](CO)[C@@H](O)C2(F)F)c(=O)n1` [gemcitabine hydrochloride], the “Percent inhibition of tumor growth” value ([7]; gemcitabine hydrochloride alone, 5 mg/kg i.v. on days 1, 3, 6 after implantation) was 32%, the Survival rate [8] was 93.3% and the “Survival rate at 60 days after initiation of administration (66 days after implantation)” value ([9]; alone or combined (control 0)) was 0%. For the same compound, the Median survival time ([9]; alone or combined (control 39)) was 48 days, the “Survival rate at 50 days after initiation of administration (56 days after implantation)” value ([9]; alone or combined (control 40)) was 20% and the Average survival time ([9]; alone or combined (control 43)) was 46.9 days. For the same compound, the “Days of death of the last individual” value ([9]; alone or combined (control 56)) was 54 days.
With “calcium (R)-(−)-3-[3-(1-tert-butylcarbonylmethyl-2-oxo-5-cyclohexyl-1,3,4,5-tetrahydro-2H-1,5-benzodiazepin-3-yl)ureido]benzoate [compound A1]” the “Percent inhibition of tumor growth” value ([10]; 30 mg/kg oral once daily for 21 days) was 40%, the “Percent inhibition of tumor growth” value ([10]; 100 mg/kg oral once daily for 21 days) was 42% and the “Percent inhibition of tumor growth” value ([7]; compound A1 alone, 30 mg/kg oral once daily for 36 days) was 19%. The “Percent inhibition of tumor growth” value ([7]; compound A1 alone, 100 mg/kg oral once daily for 36 days) was 23%, the “Inhibition of tumor metastasis to the liver (weight of tumor-metastasized liver)” value ([11]; 3 mg/kg oral once daily) was 73% and the “Inhibition of tumor metastasis to the liver (weight of tumor-metastasized liver)” value ([11]; 30 mg/kg oral once daily) was 81%. For the same compound, the “Percent inhibition of tumor growth” value ([12]; 30 mg/kg oral once daily for 17 days from 4 days after implantation) was 44%, the “Percent inhibition of tumor growth” value ([12]; 100 mg/kg oral once daily for 17 days from 4 days after implantation) was 50% and the “Percent inhibition of tumor growth” value ([1]; compound A1 alone, 30 mg/kg oral once daily for 12 days from 10 days after implantation) was 34%. The “Abnormality … histopathological test” value [5, 15] was “no abnormality was found”, the Deaths [5, 15] was “no deaths were observed” and the “Abnormality in body weight, feed intake, ophthalmological test, electrocardiogram, blood pressure, urine test, hematological test, blood biochemical test, organ weight, autopsy finding” value [6, 16] was “no abnormality was found”. For the same compound, the Deaths [6, 16] was “no deaths were observed”.
